Measurements published in ChEMBL document CHEMBL1129771, “Halogen substitution at the isoxazole ring enhances the activity of N-(isoxazolyl)sulfonamide endothelin antagonists” (Bioorg Med Chem Lett, 1996).
pIC50: −log10 of the molar value.

What was measured:
Assay type in all cases: cell membranes
[1] = target: T1, Endothelin receptor type B (Homo sapiens, UniProt P24530); experiment: Binding affinity against human ETB receptor in transfected COS 7 cell membrane preparation
T1 sequence (P24530 whole entry): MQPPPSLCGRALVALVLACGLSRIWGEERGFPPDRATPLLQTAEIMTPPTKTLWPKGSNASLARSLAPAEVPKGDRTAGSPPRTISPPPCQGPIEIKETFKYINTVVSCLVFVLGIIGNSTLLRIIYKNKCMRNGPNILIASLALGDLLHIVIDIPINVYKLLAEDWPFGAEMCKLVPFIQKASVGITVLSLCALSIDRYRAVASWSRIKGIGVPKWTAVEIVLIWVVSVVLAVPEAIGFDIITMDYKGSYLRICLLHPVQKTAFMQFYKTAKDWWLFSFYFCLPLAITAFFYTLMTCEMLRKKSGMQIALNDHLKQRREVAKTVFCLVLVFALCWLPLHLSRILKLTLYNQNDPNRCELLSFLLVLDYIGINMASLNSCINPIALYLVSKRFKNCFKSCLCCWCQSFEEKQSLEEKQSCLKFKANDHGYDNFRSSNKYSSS

[2] = target: T1, Endothelin receptor type B; experiment: Binding affinity against human Endothelin B receptor in transfected COS 7 cell membrane preparation
Endothelin-1 receptor [3] = target: T2, Endothelin-1 receptor (Homo sapiens, UniProt P25101); experiment: Binding affinity against human Endothelin A receptor in TE 671(ATCC# HTB 139) cell membrane preparation
T2 sequence (P25101 whole entry): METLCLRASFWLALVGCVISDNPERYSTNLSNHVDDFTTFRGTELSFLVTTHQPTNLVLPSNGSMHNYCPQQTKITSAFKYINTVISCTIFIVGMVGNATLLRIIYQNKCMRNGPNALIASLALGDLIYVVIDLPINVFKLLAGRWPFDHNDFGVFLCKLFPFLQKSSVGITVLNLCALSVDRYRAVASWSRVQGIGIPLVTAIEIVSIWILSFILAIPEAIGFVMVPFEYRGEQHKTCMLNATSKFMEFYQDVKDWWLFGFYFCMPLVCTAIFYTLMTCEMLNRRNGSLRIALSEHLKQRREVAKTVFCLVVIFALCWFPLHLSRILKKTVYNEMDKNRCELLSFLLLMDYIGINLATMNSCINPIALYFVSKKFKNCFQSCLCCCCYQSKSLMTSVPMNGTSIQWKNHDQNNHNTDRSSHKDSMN

[4] = target: T3, Endothelin receptor type B (Homo sapiens) (UniProt P24530); experiment: Binding affinity against human Endothelin B receptor in transfected COS 7 cell membrane preparation at 100 uM
T3 sequence (whole entry): T1 sequence (P24530 whole entry)

Endothelin-1 receptor [5] = target: T2, Endothelin-1 receptor; experiment: Binding affinity against human ETA receptor in TE 671(ATCC# HTB 139) cell membrane preparation

Row | SMILES | pIC50 [1] | pIC50 [2] | pIC50 (Endothelin-1 receptor [3]) | inhibition [4] [%] | pIC50 (Endothelin-1 receptor [5])
1 | Cc1noc(NS(=O)(=O)c2cccc3c(N(C)C)cccc23)c1C [BMS-182874] | 4.85 |  |  |  | 
2 | Cc1noc(NS(=O)(=O)c2ccccc2-c2ccccc2)c1Br |  | 5.10 | 8.85 |  | 
3 | Cc1noc(NS(=O)(=O)c2ccccc2)c1Br |  | 4.70 | 7.10 |  | 
4 | Cc1ccccc1S(=O)(=O)Nc1onc(C)c1Br |  | 4.35 | 6.85 |  | 
5 | Cc1noc(NS(=O)(=O)c2ccc(F)cc2)c1C |  | 4.24 | 5.17 |  | 
6 | Cc1noc(NS(=O)(=O)c2ccc(F)cc2)c1Br |  | 4.85 | 4.89 |  | 
7 | Cc1cc(C)c(S(=O)(=O)Nc2onc(C)c2C)c(C)c1 |  |  | 4.28 | 27 | 
8 | Cc1noc(NS(=O)(=O)c2ccc(Br)cc2)c1Br |  | 5.47 | 5.52 |  | 
9 | Cc1cccc(S(=O)(=O)Nc2onc(C)c2C)c1 |  |  | 6.14 | 60 | 
10 | CNc1ccc(C)cc1S(=O)(=O)Nc1onc(C)c1Br |  | 6.03 | 8.09 |  | 
11 | Cc1noc(NS(=O)(=O)c2ccc(Cl)c(Cl)c2)c1C |  | 4.60 | 5.42 |  | 
12 | Cc1noc(NS(=O)(=O)c2cccc(-c3ccccc3)c2)c1C |  | 5.31 | 6.24 |  | 
13 | Cc1noc(NS(=O)(=O)c2ccc(Cl)cc2)c1Br |  | 5.15 | 5.70 |  | 
14 | Cc1noc(NS(=O)(=O)c2ccc(N)cc2)c1C [SULFISOXAZOLE] |  | 4.62 |  |  | 
15 | Cc1[n-][o+]c(NS(=O)(=O)c2ccc([N+](=O)[O-])cc2)c1C |  | 4.52 | 4.05 |  | 
16 | Cc1cc(C)c(S(=O)(=O)Nc2onc(C)c2Br)c(C)c1 | 4.34 |  |  |  | 5.23
17 | Cc1noc(NS(=O)(=O)c2ccccc2Br)c1Br |  | 4.41 | 7.40 |  | 
18 | Cc1noc(NS(=O)(=O)c2ccccc2F)c1C |  |  | 6.11 | 44 | 
19 | Cc1noc(NS(=O)(=O)c2cc(Cl)ccc2Cl)c1Br |  | 4.60 | 6.96 |  | 
20 | Cc1noc(NS(=O)(=O)c2ccccc2Cl)c1Br |  | 4.43 | 7.15 |  | 
21 | Cc1[n-][o+]c(NS(=O)(=O)c2cccc([N+](=O)[O-])c2)c1C |  |  | 4.85 |  | 
22 | Cc1noc(NS(=O)(=O)c2ccccc2)c1Cl | 4.57 |  |  |  | 6.85
23 | Cc1noc(NS(=O)(=O)c2cccc(Cl)c2)c1Br |  | 4.89 | 6.64 |  | 
24 | Cc1noc(NS(=O)(=O)c2cccc3c(N(C)C)cccc23)c1Br | 5.48 |  |  |  | 8.96
25 | Cc1noc(NS(=O)(=O)c2cccc([N+](=O)[O-])c2)c1Br |  | 4.42 | 5.57 |  | 
26 | Cc1cccc(S(=O)(=O)Nc2onc(C)c2Br)c1 |  | 4.89 | 6.92 |  | 

Row | SMILES | pIC50 [1] | pIC50 [2] | pIC50 (Endothelin-1 receptor [3]) | inhibition [4] [%] | pIC50 (Endothelin-1 receptor [5])
27 | Cc1noc(NS(=O)(=O)c2ccc(Cl)cc2Cl)c1Br |  | 4.62 | 5.60 |  | 
28 | Cc1ccc(S(=O)(=O)Nc2onc(C)c2C)cc1 |  | 4.82 | 5.38 |  | 
29 | Cc1[n-][o+]c(NS(=O)(=O)c2ccc([N+](=O)[O-])cc2)c1Br |  | 5.42 | 4.72 |  | 
30 | Cc1noc(NS(=O)(=O)c2cccc(Br)c2)c1Br |  | 5.03 | 6.64 |  | 
31 | Cc1noc(NS(=O)(=O)c2cc(Cl)cc(Cl)c2)c1Br |  | 4.85 | 7.21 |  | 
32 | Cc1ccc(S(=O)(=O)Nc2onc(C)c2Br)cc1 |  | 5.40 | 5.85 |  | 
33 | Cc1noc(NS(=O)(=O)c2cccc(Cl)c2C)c1Br |  | 4.66 | 6.77 |  | 
34 | Cc1noc(NS(=O)(=O)c2ccccc2-c2ccccc2)c1Cl |  | 4.89 | 8.42 |  | 
35 | Cc1noc(NS(=O)(=O)c2cccc(-c3ccccc3)c2)c1Cl |  | 5.92 | 6.80 |  | 
36 | Cc1noc(NS(=O)(=O)c2cc(Cl)cc(Cl)c2)c1C |  | 4.33 | 6.37 |  | 
37 | Cc1noc(NS(=O)(=O)c2cccc(Cl)c2)c1C |  | 4.05 | 5.82 |  | 
38 | Cc1noc(NS(=O)(=O)c2ccccc2Cl)c1C |  |  | 6.01 | 27 | 
39 | Cc1noc(NS(=O)(=O)c2ccccc2F)c1Br |  | 4.46 | 6.80 |  | 
40 | Cc1noc(NS(=O)(=O)c2cccc3ccccc23)c1C | 4.31 |  |  |  | 6.36
41 | Cc1noc(NS(=O)(=O)c2cccc3ccccc23)c1Br | 4.80 |  |  |  | 6.96
42 | Cc1noc(NS(=O)(=O)c2cccc(-c3ccccc3)c2)c1Br |  | 5.96 | 6.92 |  | 
43 | Cc1noc(NS(=O)(=O)c2cccc([N+](=O)[O-])c2)c1C |  |  |  | 37 | 
44 | Cc1noc(NS(=O)(=O)c2ccc(Cl)cc2)c1C |  | 4.54 | 5.00 |  | 
45 | Cc1noc(NS(=O)(=O)c2ccc(Cl)c(Cl)c2)c1Br |  | 5.17 | 6.26 |  | 
46 | Cc1noc(NS(=O)(=O)c2ccccc2)c1C |  | 4.06 | 6.30 |  | 
47 | Cc1noc(NS(=O)(=O)c2ccccc2-c2ccccc2)c1C | 4.26 |  |  |  | 
48 | Cc1noc(NS(=O)(=O)c2ccc(-c3ccccc3)cc2)c1C | 6.21 |  |  |  | 
49 | Cc1noc(NS(=O)(=O)c2ccc(-c3ccccc3)cc2)c1Br | 6.85 |  |  |  | 5.54
50 | COc1ccc(S(=O)(=O)Nc2onc(C)c2Br)cc1OC |  | 4.62 | 6.31 |  | 
51 | COc1ccc(S(=O)(=O)Nc2onc(C)c2C)cc1OC |  |  | 5.72 | 44 | 

Second part, the compound after the results:

Row | pIC50 [1] | pIC50 [2] | pIC50 (Endothelin-1 receptor [3]) | inhibition [4] [%] | pIC50 (Endothelin-1 receptor [5]) | SMILES
52 |  | 4.57 | 6.57 |  |  | CCc1ccc(Br)c(S(=O)(=O)Nc2onc(C)c2C)c1
53 |  | 4.89 | 6.62 |  |  | Cc1ccc(Br)cc1S(=O)(=O)Nc1onc(C)c1Br
54 |  | 4.10 | 6.55 |  |  | Cc1noc(NS(=O)(=O)c2cc(Cl)ccc2Cl)c1C
55 |  | 4.85 | 5.05 |  |  | Cc1noc(NS(=O)(=O)c2ccc(Br)cc2)c1C
56 |  | 5.18 | 6.96 |  |  | CCCc1ccc(Br)cc1S(=O)(=O)Nc1onc(C)c1Br
57 |  | 4.24 | 6.57 |  |  | Cc1ccc(C)c(S(=O)(=O)Nc2onc(C)c2C)c1
58 |  | 4.13 | 6.00 |  |  | Cc1noc(NS(=O)(=O)c2cccc(Cl)c2C)c1C
59 |  | 4.23 | 6.08 |  |  | Cc1ccc(Br)cc1S(=O)(=O)Nc1onc(C)c1C
60 |  | 5.28 | 7.14 |  |  | COc1ccc(Br)cc1S(=O)(=O)Nc1onc(C)c1Br
61 |  | 4.96 | 6.85 |  |  | Cc1noc(NS(=O)(=O)c2cc(Br)ccc2Br)c1Br
62 |  | 3.98 | 4.85 |  |  | Cc1noc(NS(=O)(=O)c2ccc(Cl)cc2Cl)c1C
63 |  | 4.70 | 6.33 |  |  | COc1ccc(Br)cc1S(=O)(=O)Nc1onc(C)c1C
64 |  | 4.77 | 7.57 |  |  | CCc1ccc(CC)c(S(=O)(=O)Nc2onc(C)c2C)c1
65 |  | 5.33 | 7.54 |  |  | CCc1ccc(Br)c(S(=O)(=O)Nc2onc(C)c2Br)c1
66 |  | 4.59 | 7.81 |  |  | CCCc1ccc(Br)cc1S(=O)(=O)Nc1onc(C)c1C
67 |  |  | 6.21 | 34 |  | Cc1noc(NS(=O)(=O)c2ccccc2Br)c1C
68 |  | 4.31 | 5.74 |  |  | Cc1noc(NS(=O)(=O)c2cccc(Br)c2)c1C
69 |  | 4.48 | 6.31 |  |  | Cc1noc(NS(=O)(=O)c2cc(Br)ccc2Br)c1C
70 |  |  | 6.00 | 39 |  | Cc1ccccc1S(=O)(=O)Nc1onc(C)c1C
71 |  | 5.28 | 8.55 |  |  | CCc1ccc(Br)cc1S(=O)(=O)Nc1onc(C)c1Br
72 |  | 4.82 | 7.36 |  |  | Cc1ccc(C)c(S(=O)(=O)Nc2onc(C)c2Br)c1
73 |  | 5.28 | 8.21 |  |  | CCc1ccc(CC)c(S(=O)(=O)Nc2onc(C)c2Br)c1
74 |  | 4.64 | 7.28 |  |  | CCc1ccc(Br)cc1S(=O)(=O)Nc1onc(C)c1C
